Where two headings read alike, the source gives them in different places.
Assays:
hot plate = details: cited from earlier work
tail flick = details: intravenous delivery (Mechoulam et al. 1995); cited from earlier work
[1] = test system: CFA-induced paw radiant heat hypersensitivity; test: CFA-Induced Paw Radiant Heat Hypersensitivity; format: in vivo; details: CFA thermal hypersensitivity, rat, 30 mg/kg p.o., HPβCD; group mean values; last time point 180 or 300 min
Method: Each rat was placed in a test chamber on a warm glass surface and allowed to acclimate for approximately 10 min. A radiant thermal stimulus (beam of light) was then focused through the glass onto the plantar surface of each hind paw in turn. The thermal stimulus was automatically shut off by a photoelectric relay when the paw was moved or when the cut-off time was reached (20 sec for radiant heat at ˜5 amps). An initial (baseline) response latency to the thermal stimulus was recorded for each animal prior to the injection of complete Freund's adjuvant (CFA). […] Immediately following the post-CFA latency assessment, the indicated test compound or vehicle was administered orally.
The percent reversal (% R) of hypersensitivity was calculated in one of two different ways: 1) using group mean values or 2) using individual animal values. More specifically:
Method 2. For some compounds, the % R of hypersensitivity was calculated separately for each animal according to the following formula: % reversal=[(individual treatment response−individual CFA response)/(individual baseline response−individual CFA response)]×100. Results are given as a mean of the maximum % reversal values calculated for each individual animal.

[2] = molecular target: T1, MGL (rat brain homogenate) (Rattus norvegicus, UniProt Q8R431); test: 2-AG Accumulation Assay in rat brain homogenate; format: biochemical; details: 0.25 h, compound 1 μM, percent of vehicle 2-AG accumulation, read-out: Rat Brain 2AG % VehCntrl (%) @1 μM
T1 construct: pre-incubated with rat brain homogenate (50 mg); from tissue; host or cells: rat brain homogenate
T1 sequence (Q8R431 1-303): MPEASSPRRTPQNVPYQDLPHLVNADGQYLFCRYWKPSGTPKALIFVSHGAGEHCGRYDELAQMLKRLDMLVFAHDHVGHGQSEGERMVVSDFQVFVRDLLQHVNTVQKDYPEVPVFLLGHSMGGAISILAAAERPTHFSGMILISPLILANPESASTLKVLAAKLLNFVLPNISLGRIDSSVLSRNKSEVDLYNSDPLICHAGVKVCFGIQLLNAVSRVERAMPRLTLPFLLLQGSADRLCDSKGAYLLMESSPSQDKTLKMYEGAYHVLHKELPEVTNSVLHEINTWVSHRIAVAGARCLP

[3] = test system: murine model of acute inflammation; details: Comelli et al. 2007; cited from earlier work

**Q.** With `CCCCC/C=C\C/C=C\C/C=C\C/C=C\CCCC(=O)OC(CO)CO` [2-AG, 2-arachidinoylglycerol] as the molecule, how does the “analgesia in the hot plate assay” value (hot plate; combined with 2-linoleoyl glycerol and 2-palmitoyl glycerol (Ben-Shabat et al. 1998)) read?
**A.** Its value is “significant analgesia”.

**Q.** And the “analgesia in the hot plate assay” value (hot plate; given alone (Ben-Shabat et al. 1998))?
**A.** The value was “not analgesic”.

**Q.** And the “analgesia in the hot plate assay” value (hot plate; intravenous delivery (Lichtman et al. 2002))?
**A.** The value was “produces analgesia”.

**Q.** And the “analgesia in the tail flick assay” value (tail flick)?
**A.** The value was “produces analgesia”.

**Q.** For `C/C(=C\c1ccc(Cl)cc1)c1c(C)c(C(=O)N2CC(N3CCN(C(=O)c4nccs4)CC3)C2)nn1-c1ccc(Cl)cc1Cl` [Cpd 1010], which “Method 1: peak % reversal” value [1] is on record?
**A.** The value was 23.4%.

**Q.** For `Cc1ccc(-n2ccc3cc(C(=O)N4CC(N5CCN(C(=O)c6nccs6)CC5)C4)ccc32)nc1` [Cpd 1073, 1-(5-Methylpyridin-2-yl)-5-({3-[4-(1,3-thiazol-2-ylcarbonyl)piperazin-1-yl]azetidin-1-yl}carbonyl)-1H-indole], which activity at 1 µM [2] is on record?
**A.** The activity at 1 µM was 749%.

**Q.** Which “Method 1: peak % reversal” value [1] does the source give for `O=C(c1ccc(-c2cccc(C(F)(F)F)c2)c(Cl)c1)N1CC(N2CCN(C(=O)c3cscn3)CC2)C1` [Cpd 1102] here?
**A.** Its value is 38%.

**Q.** With `O=C(Nc1cccc(-c2ccccc2)c1)OC1CCCCC1` [URB602] as the molecule, how does the antinociceptive effect [3] read?
**A.** Its antinociceptive effect is “antinociceptive effect”.

Reference: patent US8367653B2, “Azetidinyl diamides as monoacylglycerol lipase inhibitors” (Janssen Pharmaceutica NV, priority 2009, dated 2013)
